The test system of assay [1] is KARPAS422 human B cell lymphoma cell. The experiment in a line: Cell proliferation, KARPAS422, 7 day treatment (WST-8). It is filed as cell-based. The following applies: Homo sapiens, KARPAS-422, 168 h, 7 day treatment, read-out: Karpas Cell line. The method in brief:
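KARPAS422 cells seeded at 2 000-3 000 cells/well and exposed to serially diluted compounds for 7 days at 37 °C, 5% CO2. Growth measured by WST-8 (1-4 h, absorbance 450 nm). Readings normalized to DMSO-treated cells; IC50 from nonlinear regression.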

In assay [2] the test system is Pfeiffer cell line. The experiment in a line: Anti-proliferative activity, Pfeiffer cell line, 7 day treatment. It is filed as cell-based. Conditions: Homo sapiens, 168 h, 7 day treatment, read-out: Pfeiffer Cell line. As for the experimental part:
“N/A” stands for “not assessed”.
To assess the effect of PRC2 inhibition on cell growth, cells were seeded in 96-well cell culture plates at a density of 2 000-3 000 cells/well in 200 µL of culture medium, and treated with serially diluted compounds for 7 days at 37° C. in an atmosphere of 5% CO2. Cell growth was evaluated by a […] WST-8 assay (Dojindo Molecular Technologies) using a Tecan Infinite M1000 multimode microplate reader (Tecan, Morrisville, NC). The WST-8 reagent was added to the plate, incubated for 1-4 h, and read at 450 nm. The readings were normalized to the DMSO-treated cells, and the IC50 was calculated by nonlinear regression analysis using GraphPad Prism 6 software

Where [3] appears, read: anti-proliferative IC50 class, Karpas 422 cell line.
The mark [4] stands for this setting: anti-proliferative IC50 class, Pfeiffer cell line.
Where [5] appears, read: anti-proliferative IC50, Karpas 422 cell line.
[6] abbreviates: anti-proliferative IC50, Pfeiffer cell line.

pIC50: −log10 of the molar value. Read-outs that look alike come from different tables or passages of the source.

Experimental findings from patent US12145944B2, “Imidazopyrimidines as EED inhibitors and the use thereof” (THE REGENTS OF THE UNIVERSITY OF MICHIGAN, priority 2019, dated 2024) are described below.

For the molecule `CC(C)(C)c1ccc2c(n1)CN(CC(F)(F)F)C(=O)c1ncn3c(NCc4c(F)ccc5c4CCO5)ncc-2c13` [E 50, 7-(tert-butyl)-12-(((5-fluoro-2,3-dihydrobenzofuran-4-yl)methyl)amino)-4-(2,2,2-trifluoroethyl)-4,5-dihydro-3H-2,4,6,11,12a-pentaazabenzo[4,5]cycloocta[1,2,3-cd]inden-3-one], the pIC50 in assay [1] (setting [3]) and in assay [2] (setting [4]) was > 8.00 each time.
Regarding `O=C1c2ncn3c(NCc4c(F)ccc5c4CCO5)ncc(c23)-c2ccc(C3CCC3)nc2CN1CC(F)(F)F` [E 52, 7-cyclobutyl-12-(((5-fluoro-2,3-dihydrobenzofuran-4-yl)methyl)amino)-4-(2,2,2-trifluoroethyl)-4,5-dihydro-3H-2,4,6,11,12a-pentaazabenzo[4,5]cycloocta[1,2,3-cd]inden-3-one], the pIC50 in assay [1] (setting [3]) and in assay [2] (setting [4]) was > 8.00 throughout.
As to `Cc1cccc(F)c1CNc1ncc2c3c(ncn13)COCc1ncccc1-2` [compound 1, N-(2-fluoro-6-methylbenzyl)-3H,5H-4-oxa-2,6,11,12a-tetraazabenzo[4,5]cycloocta[1,2,3-cd]inden-12-amine], the pIC50 in assay [1] (setting [5]) and in assay [2] (setting [6]) was < 7.00 throughout.
Turning to `CS(=O)(=O)c1ccc2c(c1)NC(=O)c1ncn3c(NCc4c(F)ccc5c4CCO5)ncc-2c13` [compound 5, 11-(((5-fluoro-2,3-dihydrobenzofuran-4-yl)methyl)amino)-6-(methylsulfonyl)-2,4,10,11a-tetraazadibenzo[cd,f]azulen-3(4H)-one], the pIC50 in assay [1] (setting [5]) is 7.49; in assay [2] (setting [6]), 7.74.
On to `O=C1OCc2ccccc2-c2cnc(NCc3c(F)ccc4c3CCO4)n3cnc1c23` [compound 6, 12-(((5-fluoro-2,3-dihydrobenzofuran-4-yl)methyl)amino)-3H,5H-4-oxa-2,11,12a-triazabenzo[4,5]cycloocta[1,2,3-cd]inden-3-one], for which the pIC50 in assay [1] (setting [5]) was 8.70; in assay [2] (setting [6]), 9.66.
The corresponding values for `O=C1OCc2cc(F)ccc2-c2cnc(NCc3c(F)ccc4c3CCO4)n3cnc1c23` [compound 7, 7-fluoro-12-(((5-fluoro-2,3-dihydrobenzofuran-4-yl)methyl)amino)-3H,5H-4-oxa-2,11,12a-triazabenzo[4,5]cycloocta[1,2,3-cd]inden-3-one] are 8.47 and 9.17.
In the case of `O=C1OCc2cc(C(F)(F)F)ccc2-c2cnc(NCc3c(F)ccc4c3CCO4)n3cnc1c23` [compound 8, 12-(((5-fluoro-2,3-dihydrobenzofuran-4-yl)methyl)amino)-7-(trifluoromethyl)-3H,5H-4-oxa-2,11,12a-triazabenzo[4,5]cycloocta[1,2,3-cd]inden-3-one], the pIC50 in assay [1] (setting [5]) is 8.54; in assay [2] (setting [6]) it was 9.24.
Consider `O=C1OCc2cc(F)ccc2-c2cnc(NCc3cccc4c3CCO4)n3cnc1c23` [compound 9, 12-(((2,3-dihydrobenzofuran-4-yl)methyl)amino)-7-fluoro-3H,5H-4-oxa-2,11,12a-triazabenzo[4,5]cycloocta[1,2,3-cd]inden-3-one], for which the pIC50 in assay [1] (setting [5]) is 8.25; in assay [2] (setting [6]), 8.74.
Turning to `O=C1OCc2ncccc2-c2cnc(NCc3c(F)ccc4occc34)n3cnc1c23` [compound 10, 12-(((5-fluorobenzofuran-4-yl)methyl)amino)-3H,5H-4-oxa-2,6,11,12a-tetraazabenzo[4,5]cycloocta[1,2,3-cd]inden-3-one], the pIC50 in assay [1] (setting [5]) is 7.80; in assay [2] (setting [6]), 8.53.
As for `O=C1OCc2c(F)cccc2-c2cnc(NCc3c(F)ccc4c3CCO4)n3cnc1c23` [compound 11, 6-fluoro-12-(((5-fluoro-2,3-dihydrobenzofuran-4-yl)methyl)amino)-3H,5H-4-oxa-2,11,12a-triazabenzo[4,5]cycloocta[1,2,3-cd]inden-3-one], the values for the pIC50 in assay [1] (setting [5]) and in assay [2] (setting [6]) were 8.34 and 8.91, respectively.
As for `O=C1OCc2cc(C(F)(F)F)ncc2-c2cnc(NCc3c(F)ccc4c3CCO4)n3cnc1c23` [compound 13, 12-(((5-fluoro-2,3-dihydrobenzofuran-4-yl)methyl)amino)-7-(trifluoromethyl)-3H,5H-4-oxa-2,8,11,12a-tetraazabenzo[4,5]cycloocta[1,2,3-cd]inden-3-one], the results for the pIC50 in assay [1] (setting [5]) and in assay [2] (setting [6]) were 8.04 and 8.70, respectively.
Regarding `O=C1OCc2nc(C(F)(F)F)ccc2-c2cnc(NCc3c(F)ccc4c3CCO4)n3cnc1c23` [compound 14, 12-(((5-fluoro-2,3-dihydrobenzofuran-4-yl)methyl)amino)-7-(trifluoromethyl)-3H,5H-4-oxa-2,6,11,12a-tetraazabenzo[4,5]cycloocta[1,2,3-cd]inden-3-one], the pIC50 in assay [1] (setting [5]) was 8.46; in assay [2] (setting [6]), 9.44.
Regarding `O=C1NCc2ccccc2-c2cnc(NCc3c(F)ccc4c3CCO4)n3cnc1c23` [compound 15, 12-(((5-fluoro-2,3-dihydrobenzofuran-4-yl)methyl)amino)-4,5-dihydro-3H-2,4,11,12a-tetraazabenzo[4,5]cycloocta[1,2,3-cd]inden-3-one], the figures for the pIC50 in assay [1] (setting [5]) and in assay [2] (setting [6]) were 8.36 and 8.90, respectively.
The like results for `O=C1NCc2cc(F)ccc2-c2cnc(NCc3c(F)ccc4c3CCO4)n3cnc1c23` [compound 17, 7-fluoro-12-(((5-fluoro-2,3-dihydrobenzofuran-4-yl)methyl)amino)-4,5-dihydro-3H-2,4,11,12a-tetraazabenzo[4,5]cycloocta[1,2,3-cd]inden-3-one] were, in that order, 7.69 and 8.38.
Consider `Cc1ccc2c(n1)COC(=O)c1ncn3c(NCc4c(F)ccc5c4CCO5)ncc-2c13` [compound 18, 12-(((5-fluoro-2,3-dihydrobenzofuran-4-yl)methyl)amino)-7-methyl-3H,5H-4-oxa-2,6,11,12a-tetraazabenzo[4,5]cycloocta[1,2,3-cd]inden-3-one], for which the figures for the pIC50 in assay [1] (setting [5]) and in assay [2] (setting [6]) were 7.82 and 9.14, respectively.
The like results for `O=C1NCc2cc(C(F)(F)F)ccc2-c2cnc(NCc3c(F)ccc4c3CCO4)n3cnc1c23` [compound 19, 12-(((5-fluoro-2,3-dihydrobenzofuran-4-yl)methyl)amino)-7-(trifluoromethyl)-4,5-dihydro-3H-2,4,11,12a-tetraazabenzo[4,5]cycloocta[1,2,3-cd]inden-3-one] were, in that order, 8.02 and 9.10.
Turning to `O=C1NCc2c(F)cccc2-c2cnc(NCc3c(F)ccc4c3CCO4)n3cnc1c23` [compound 20, 6-fluoro-12-(((5-fluoro-2,3-dihydrobenzofuran-4-yl)methyl)amino)-4,5-dihydro-3H-2,4,11,12a-tetraazabenzo[4,5]cycloocta[1,2,3-cd]inden-3-one], the pIC50 in assay [1] (setting [5]) is 7.86; in assay [2] (setting [6]) it was 9.05.
The corresponding values for `Cc1ccc2c(n1)CNC(=O)c1ncn3c(NCc4c(F)ccc5c4CCO5)ncc-2c13` [compound 21, 12-(((5-fluoro-2,3-dihydrobenzofuran-4-yl)methyl)amino)-7-methyl-4,5-dihydro-3H-2,4,6,11,12a-pentaazabenzo[4,5]cycloocta[1,2,3-cd]inden-3-one] are 7.83 and 9.21.
Take `O=C1NCc2cc(C(F)(F)F)ncc2-c2cnc(NCc3c(F)ccc4c3CCO4)n3cnc1c23` [compound 22, 12-(((5-fluoro-2,3-dihydrobenzofuran-4-yl)methyl)amino)-7-(trifluoromethyl)-4,5-dihydro-3H-2,4,8,11,12a-pentaazabenzo[4,5]cycloocta[1,2,3-cd]inden-3-one]: the pIC50 in assay [1] (setting [5]) was 7.34; in assay [2] (setting [6]) it was 8.31.
`O=C1NCc2ccc(F)cc2-c2cnc(NCc3c(F)ccc4c3CCO4)n3cnc1c23` [compound 23, 8-fluoro-12-(((5-fluoro-2,3-dihydrobenzofuran-4-yl)methyl)amino)-4,5-dihydro-3H-2,4,11,12a-tetraazabenzo[4,5]cycloocta[1,2,3-cd]inden-3-one]: the pIC50 was 7.05 in assay [1] (setting [5]) and 8.00 in assay [2] (setting [6]).
Turning to `O=C1OCc2ccc(C(F)(F)F)cc2-c2cnc(NCc3c(F)ccc4c3CCO4)n3cnc1c23` [compound 24, 12-(((5-fluoro-2,3-dihydrobenzofuran-4-yl)methyl)amino)-8-(trifluoromethyl)-3H,5H-4-oxa-2,11,12a-triazabenzo[4,5]cycloocta[1,2,3-cd]inden-3-one], the pIC50 is < 7.00 in assay [1] (setting [5]) and 7.42 in assay [2] (setting [6]).
Regarding `O=C1NCc2nc(C(F)(F)F)ccc2-c2cnc(NCc3c(F)ccc4c3CCO4)n3cnc1c23` [compound 25, 12-(((5-fluoro-2,3-dihydrobenzofuran-4-yl)methyl)amino)-7-(trifluoromethyl)-4,5-dihydro-3H-2,4,6,11,12a-pentaazabenzo[4,5]cycloocta[1,2,3-cd]inden-3-one], the pIC50 in assay [1] (setting [5]) was 7.78; in assay [2] (setting [6]), 9.54.
`O=C1NCc2ccc(C(F)(F)F)cc2-c2cnc(NCc3c(F)ccc4c3CCO4)n3cnc1c23` [compound 26, 12-(((5-fluoro-2,3-dihydrobenzofuran-4-yl)methyl)amino)-8-(trifluoromethyl)-4,5-dihydro-3H-2,4,11,12a-tetraazabenzo[4,5]cycloocta[1,2,3-cd]inden-3-one]: the results for the pIC50 in assay [1] (setting [5]) and in assay [2] (setting [6]) were 7.38 and 7.48, respectively.
